≈ marks a conversion by molar mass, not a printed value.
How the values were obtained:
[1] = Inhibition of Haemophilus influenzae phenylalanyl-tRNA synthetase
[2] = Inhibition of Streptococcus pneumoniae phenylalanyl-tRNA synthetase
[3] = test system: Haemophilus influenzae; assay: Antibacterial activity against AcrA pump deficient Haemophilus influenzae; format: functional
[4] = test system: Streptococcus pneumoniae; assay: Antibacterial activity against wild type Streptococcus pneumoniae; format: functional
[5] = test system: Haemophilus influenzae; assay: Antibacterial activity against wild type Haemophilus influenzae; format: functional
[6] = Apparent intrinsic clearance in human liver microsomes; format: ADME, Microsome
[7] = biological target: Voltage-gated inwardly rectifying potassium channel KCNH2 (Homo sapiens, UniProt Q12809); assay: Displacement of [3H]dofetilide from human ERG channel
Voltage-gated inwardly rectifying potassium channel KCNH2, sequence (Q12809 whole entry): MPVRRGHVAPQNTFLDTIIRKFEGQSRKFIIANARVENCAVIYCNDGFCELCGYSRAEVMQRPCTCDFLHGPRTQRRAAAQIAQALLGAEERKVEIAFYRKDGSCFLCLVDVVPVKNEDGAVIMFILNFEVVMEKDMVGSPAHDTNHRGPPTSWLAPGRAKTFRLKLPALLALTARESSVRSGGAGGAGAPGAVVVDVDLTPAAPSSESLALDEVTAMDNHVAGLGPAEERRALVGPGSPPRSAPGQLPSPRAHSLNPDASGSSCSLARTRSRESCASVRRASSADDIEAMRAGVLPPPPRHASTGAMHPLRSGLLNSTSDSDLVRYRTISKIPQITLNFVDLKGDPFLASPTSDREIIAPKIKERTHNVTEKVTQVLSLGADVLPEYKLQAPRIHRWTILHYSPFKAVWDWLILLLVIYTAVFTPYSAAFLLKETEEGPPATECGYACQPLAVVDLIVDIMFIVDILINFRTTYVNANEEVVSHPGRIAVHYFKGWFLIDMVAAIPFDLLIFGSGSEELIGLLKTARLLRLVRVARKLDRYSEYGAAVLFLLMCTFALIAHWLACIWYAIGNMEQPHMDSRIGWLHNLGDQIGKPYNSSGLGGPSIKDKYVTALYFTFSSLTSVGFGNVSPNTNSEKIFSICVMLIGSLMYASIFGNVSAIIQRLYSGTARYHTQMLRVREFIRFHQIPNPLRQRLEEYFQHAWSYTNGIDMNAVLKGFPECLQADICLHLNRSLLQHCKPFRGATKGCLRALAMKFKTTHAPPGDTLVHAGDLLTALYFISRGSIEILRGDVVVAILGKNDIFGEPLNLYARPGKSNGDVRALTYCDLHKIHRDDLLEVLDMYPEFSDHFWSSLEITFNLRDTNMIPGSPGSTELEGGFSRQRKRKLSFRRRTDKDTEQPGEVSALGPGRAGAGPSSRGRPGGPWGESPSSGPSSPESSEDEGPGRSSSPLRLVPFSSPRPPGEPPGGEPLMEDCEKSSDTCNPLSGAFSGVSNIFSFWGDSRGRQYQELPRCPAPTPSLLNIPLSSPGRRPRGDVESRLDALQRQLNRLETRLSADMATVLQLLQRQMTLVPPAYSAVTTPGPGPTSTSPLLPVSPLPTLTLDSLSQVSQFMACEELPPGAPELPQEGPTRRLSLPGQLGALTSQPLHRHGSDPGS

[8] = Membrane permeability by PAMPA; format: ADME; settings: for Papp: read-out: Activity
[9] = biological target: Cytochrome P450 3A4 (Homo sapiens, UniProt P08684); assay: Inhibition of human CYP3A4 at 3 uM; format: ADME
Cytochrome P450 3A4, sequence (P08684 whole entry): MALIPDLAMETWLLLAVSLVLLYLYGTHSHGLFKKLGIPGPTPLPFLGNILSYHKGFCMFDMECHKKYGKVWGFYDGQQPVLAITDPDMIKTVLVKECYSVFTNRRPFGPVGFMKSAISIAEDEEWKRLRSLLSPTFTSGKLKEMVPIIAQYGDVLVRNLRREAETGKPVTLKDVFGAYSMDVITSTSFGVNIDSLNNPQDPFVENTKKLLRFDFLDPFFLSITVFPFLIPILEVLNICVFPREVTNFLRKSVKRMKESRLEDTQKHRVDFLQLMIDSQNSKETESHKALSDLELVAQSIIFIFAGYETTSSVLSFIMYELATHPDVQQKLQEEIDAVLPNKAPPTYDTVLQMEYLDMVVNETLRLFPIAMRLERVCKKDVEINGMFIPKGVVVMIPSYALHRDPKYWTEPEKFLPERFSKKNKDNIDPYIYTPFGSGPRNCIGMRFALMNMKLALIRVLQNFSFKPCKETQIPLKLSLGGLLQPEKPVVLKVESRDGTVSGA

[10] = biological target: Cytochrome P450 2D6 (Homo sapiens, UniProt P10635); assay: Inhibition of human CYP2D6 at 3 uM; format: ADME
Cytochrome P450 2D6, sequence (P10635 whole entry): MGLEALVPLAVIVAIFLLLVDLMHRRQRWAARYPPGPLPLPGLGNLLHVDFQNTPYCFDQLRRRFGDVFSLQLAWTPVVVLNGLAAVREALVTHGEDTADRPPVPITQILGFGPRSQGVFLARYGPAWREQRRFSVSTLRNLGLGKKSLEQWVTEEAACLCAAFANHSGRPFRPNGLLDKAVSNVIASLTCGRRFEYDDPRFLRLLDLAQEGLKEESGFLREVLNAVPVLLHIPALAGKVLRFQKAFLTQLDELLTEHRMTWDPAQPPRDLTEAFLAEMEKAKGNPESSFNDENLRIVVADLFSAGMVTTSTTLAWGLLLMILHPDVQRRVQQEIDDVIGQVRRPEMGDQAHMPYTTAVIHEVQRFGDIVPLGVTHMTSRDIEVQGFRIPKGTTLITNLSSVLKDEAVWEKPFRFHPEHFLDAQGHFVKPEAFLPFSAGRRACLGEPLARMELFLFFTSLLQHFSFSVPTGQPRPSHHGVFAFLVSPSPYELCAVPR

[11] = biological target: T1, Cytochrome P450 1A2 (Homo sapiens, UniProt P05177); assay: (§1) Inhibition of human CYP1A2 at 3 uM; format: ADME; settings: 3 µM
T1 sequence (P05177 whole entry): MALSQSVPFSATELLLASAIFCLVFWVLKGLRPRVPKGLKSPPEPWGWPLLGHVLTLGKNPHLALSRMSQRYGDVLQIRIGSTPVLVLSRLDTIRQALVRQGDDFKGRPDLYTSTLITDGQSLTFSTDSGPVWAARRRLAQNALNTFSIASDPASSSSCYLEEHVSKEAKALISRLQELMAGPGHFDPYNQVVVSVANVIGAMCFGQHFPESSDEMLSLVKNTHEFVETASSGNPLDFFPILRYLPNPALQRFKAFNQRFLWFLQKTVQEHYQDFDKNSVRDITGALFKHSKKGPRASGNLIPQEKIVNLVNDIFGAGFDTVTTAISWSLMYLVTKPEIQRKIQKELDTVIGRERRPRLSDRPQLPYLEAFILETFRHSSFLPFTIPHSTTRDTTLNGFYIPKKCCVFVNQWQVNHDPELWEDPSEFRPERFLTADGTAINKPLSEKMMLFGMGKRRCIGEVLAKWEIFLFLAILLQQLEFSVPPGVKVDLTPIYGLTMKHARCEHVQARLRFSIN

[12] = biological target: Cytochrome P450 2C9 (Homo sapiens, UniProt P11712); assay: Inhibition of human CYP2C9 at 3 uM; format: ADME
Cytochrome P450 2C9, sequence (P11712 whole entry): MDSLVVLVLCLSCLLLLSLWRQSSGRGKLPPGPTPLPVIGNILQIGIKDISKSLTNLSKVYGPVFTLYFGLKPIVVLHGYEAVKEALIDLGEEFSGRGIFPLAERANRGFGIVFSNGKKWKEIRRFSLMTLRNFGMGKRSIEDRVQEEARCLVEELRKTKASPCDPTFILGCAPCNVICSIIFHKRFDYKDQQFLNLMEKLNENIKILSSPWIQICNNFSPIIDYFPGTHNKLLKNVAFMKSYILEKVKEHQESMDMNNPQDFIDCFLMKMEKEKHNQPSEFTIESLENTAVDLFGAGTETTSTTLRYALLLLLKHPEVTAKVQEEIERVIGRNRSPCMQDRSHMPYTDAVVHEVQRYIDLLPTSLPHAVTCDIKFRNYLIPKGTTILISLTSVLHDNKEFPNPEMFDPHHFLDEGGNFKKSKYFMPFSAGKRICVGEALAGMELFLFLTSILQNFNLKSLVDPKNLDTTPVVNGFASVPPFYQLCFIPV

[13] = biological target: T2, CYP1A2 (Homo sapiens, UniProt P05177); assay: as §1; format: ADME; settings: read-out: Activity
T2 sequence (P05177 whole entry): T1 sequence (P05177 whole entry)

[14] = biological target: hERG (KCNH2) (Homo sapiens, UniProt Q12809); assay: Displacement of [3H]dofetilide from human ERG channel at 10 nM; settings: probe [3H]dofetilide, read-out: Activity
hERG (KCNH2), sequence (Q12809 whole entry): as the sequence (Q12809 whole entry) above

IC50 [1]	IC50 [2]	Structure (SMILES)	also measured
11000 nM	76 µM	CCc1nnc(-c2ccc(OCc3cccc(Cl)c3)c(Cl)c2)o1	–
6600 nM	95 µM	Cc1nnc(-c2ccc(OCc3cccc(Cl)c3)c(Cl)c2)o1	–
3100 nM	12 µM	COC(=O)c1ccc(OCc2cccc(Cl)c2)cc1	–
57000 nM	> 64 µM	COC(=O)c1ccc(CNc2cccc(Cl)c2)cc1	–
29000 nM	483 µM	CC(CO)NC(=O)c1ccc(OCc2cccc(Cl)c2)c(Cl)c1 (stereo unspecified)	MIC [3]: 4 µg/mL (≈ 11.3 µM); MIC [4]: 32 µg/mL (≈ 90.3 µM); MIC [5]: > 32 µg/mL
> 64000 nM	> 64 µM	COC(=O)c1ccc(NC(=O)c2cccc(Cl)c2)c(C)c1	–
> 64000 nM	> 64 µM	COC(=O)c1ccc(C(=O)Nc2cccc(Cl)c2)cc1	–
130 nM	0.2 µM	COC(=O)c1ccc(/C=C/c2cccc(Cl)c2)c(C)c1	–
2700 nM	60 µM	NC(=O)c1nnc(-c2cc(Cl)c(OCc3cccc(Cl)c3)cn2)o1	–
1700 nM	126 µM	NC(=O)Cc1nnc(-c2ccc(OCc3cccc(Cl)c3)c(Cl)c2)o1	–
4600 nM	43 µM	CC(CO)NC(=O)c1ccc(OCc2cc(Cl)ccn2)c(Cl)c1 (stereo unspecified)	MIC [3]: 2 µg/mL (≈ 5.63 µM); MIC [4]: 32 µg/mL (≈ 90.1 µM); MIC [5]: 32 µg/mL (≈ 90.1 µM)
11000 nM	110 µM	O=C(O)Cc1nnc(-c2ccc(OCc3cccc(Cl)c3)c(Cl)c2)o1	–
2600 nM	81 µM	NC(=O)c1nnc(-c2ccc(OCc3cccc(Cl)c3)c(Cl)c2)o1	–
17 nM	0.091 µM	COC(=O)c1ccc(OCc2cccc(Cl)c2)c(Cl)c1	–
150 nM	2.3 µM	CN1CCN(C(=O)c2ccc(OCc3cccc(Cl)c3)c(Cl)c2)CC1	–
3500 nM	6.1 µM	COC(=O)c1ccc(NCc2cccc(Cl)c2)c(C)c1	–
170 nM	3.5 µM	COC(=O)c1ccc(N(C)Cc2cccc(Cl)c2)c(C)c1	–
> 64000 nM	> 64 µM	Cc1cc(C(=O)N2CCN(C)C(=O)C2)ccc1NS(=O)(=O)c1cccc(Cl)c1	–
67 nM	3.7 µM	Cc1cc(C(=O)N2CCN(C(=O)C3CCCO3)CC2)ccc1OCc1cccc(Cl)c1 (stereo unspecified)	CLint scaled [6]: 55.1 mL/min/kg; Ki [7]: 23.9 nM; Papp [8]: 10.8 ×10⁻⁶ cm/s; Activity [9]: Not Active; Activity [10]: Not Active; Activity [11]: Not Active; Activity [12]: Not Active
280 nM	11 µM	Cc1cc(C(=O)N2CCN(C(=O)C3CCCO3)CC2)ccc1CC(O)c1cccc(Cl)c1 (stereo unspecified)	–
150 nM	–	Cc1cc(C(=O)N2CCC(C(N)=O)CC2)ccc1OCc1cccc(Cl)c1	–
360 nM	46 µM	Cc1cc(C(=O)N2CCC(C(N)=O)CC2)ccc1CCc1cccc(Cl)c1	–
> 64000 nM	> 64 µM	Cn1c(-c2cccc(Cl)c2)nc(=O)c2cc(C(=O)N3CCC(C(N)=O)CC3)ccc21	–
1900 nM	79 µM	CCN(CC)CCN(C)S(=O)(=O)c1ccc(OCc2cccc(Cl)c2)c(Cl)c1	–
1300 nM	28 µM	CC(=O)Nc1nnc(-c2ccc(OCc3cccc(Cl)c3)c(Cl)c2)o1	–
1900 nM	12 µM	Cc1ccc(C(=O)N2CCN(S(=O)(=O)c3ccc(OCc4cccc(Cl)c4)c(Cl)c3)CC2)cc1	–
34 nM	0.097 µM	COC(=O)c1ccc(OCc2cccc(Cl)c2)c(C)c1	–
30 nM	0.16 µM	COC(=O)c1ccc(OCc2cc(F)cc(F)c2)c(Cl)c1	–

IC50 [1]	IC50 [2]	Structure (SMILES)	also measured
8.7 nM	0.12 µM	COC(=O)c1ccc(OCc2ccc(F)c(F)c2)c(Cl)c1	–
840 nM	–	CN1CCN(C(=O)c2ccc(COc3cccc(Cl)c3)c(Cl)c2)CC1	–
> 64000 nM	> 64 µM	Cc1cc(C(=O)N2CCN(C)CC2)ccc1C(CO)c1cccc(Cl)c1 (stereo unspecified)	–
38 nM	1.3 µM	CN1CCN(C(=O)c2ccc(OCc3cccc(Cl)c3)c(Cl)c2)CC1=O	CLint scaled [6]: < 7.6 mL/min/kg; Ki [7]: 37.2 nM; Papp [8]: 16.4 ×10⁻⁶ cm/s; Activity [9]: Not Active; Activity [10]: Not Active; Activity [11]: Not Active; Activity [12]: Not Active
–	50 µM	Nc1nnc(-c2cc(Cl)c(OCc3cccc(Cl)c3)cn2)o1	–
> 64000 nM	> 64 µM	CN1CCN(C(=O)c2ccc(CS(=O)(=O)c3cccc(Cl)c3)c(Cl)c2)CC1=O	–
16000 nM	34 µM	O=C(NCCCCO)c1ccc(OCc2cc(Cl)ccn2)c(Cl)c1	–
14000 nM	438 µM	O=C(NCCN1CCOCC1)c1ccc(OCc2cccc(Cl)c2)c(Cl)c1	–
3100 nM	87 µM	OCCc1nnc(-c2ccc(OCc3cccc(Cl)c3)c(Cl)c2)o1	–
8000 nM	65 µM	O=C(NCCN1CCOCC1)c1cc(Cl)c(OCc2cccc(Cl)c2)cn1	MIC [3]: 1 µg/mL (≈ 2.44 µM); MIC [4]: 8 µg/mL (≈ 19.5 µM); MIC [5]: 32 µg/mL (≈ 78 µM)
1500 nM	28 µM	O=C(NC1CCC(O)CC1)c1cc(Cl)c(OCc2cccc(Cl)c2)cn1 (stereo unspecified)	–
6500 nM	> 64 µM	COC(=O)c1ccc([C@H](O)[C@@H](O)c2cccc(Cl)c2)c(C)c1	–
> 64000 nM	> 64 µM	COC(=O)c1ccc([C@@H](O)[C@H](O)c2cccc(Cl)c2)c(C)c1	–
11000 nM	156 µM	Clc1cccc(COc2ccc(-c3nnco3)cc2Cl)c1	–
5500 nM	81 µM	CSc1nnc(-c2ccc(OCc3cccc(Cl)c3)c(Cl)c2)o1	–
1500 nM	36 µM	C[S+]([O-])c1nnc(-c2ccc(OCc3cccc(Cl)c3)c(Cl)c2)o1 (stereo unspecified)	–
57000 nM	393 µM	O=C(NCC1CC1)c1ccc(OCc2cccc(Cl)c2)c(Cl)c1	–
12000 nM	97 µM	Clc1cccc(COc2cnc(-c3nnco3)cc2Cl)c1	CLint scaled [6]: < 10.1 mL/min/kg; Papp [8]: 5.31 ×10⁻⁶ cm/s; inhibition at 3 µM [13]: 38%
30000 nM	50 µM	O=C(NCC1CC1)c1cc(Cl)c(OCc2cccc(Cl)c2)cn1	–
> 64000 nM	> 64 µM	COC(=O)c1ccc(CN(C)c2cccc(Cl)c2)cc1	–
> 64000 nM	> 64 µM	CN1CCN(C(=O)c2ccc(S(=O)(=O)Nc3cccc(Cl)c3)c(Cl)c2)CC1=O	–
2300 nM	42 µM	Nc1nnc(-c2ccc(OCc3cccc(Cl)c3)c(Cl)c2)o1	–
24000 nM	34 µM	CCn1nccc1NC(=O)c1cc(Cl)c(OCc2cccc(Cl)c2)cn1	–
2100 nM	53 µM	CS(=O)(=O)c1nnc(-c2ccc(OCc3cccc(Cl)c3)c(Cl)c2)o1	MIC [3]: 1 µg/mL (≈ 2.5 µM); MIC [4]: > 32 µg/mL; MIC [5]: 32 µg/mL (≈ 80.1 µM)
2400 nM	23 µM	CN1CCN(C(=O)c2ccc(C[S+]([O-])c3cccc(Cl)c3)c(Cl)c2)CC1=O (stereo unspecified)	–
240 nM	2.2 µM	CC(=O)NC1CCN(Cc2ccc(OCc3ccc(Cl)cc3)c(Cl)c2)C1 (stereo unspecified)	CLint scaled [6]: 9.63 mL/min/kg; Activity [8]: Not Active; inhibition at 0.01 µM [14]: 89%
22000 nM	254 µM	O=C(NCCCCO)c1ccc(OCc2cccc(Cl)c2)c(Cl)c1	CLint scaled [6]: < 7.6 mL/min/kg; Ki [7]: > 100 nM; Papp [8]: 1.22 ×10⁻⁶ cm/s; Activity [9]: Not Active; Activity [10]: Not Active; Activity [11]: Not Active; Activity [12]: Not Active
